Data as given in US6911454B1, “Method for potentiating primary drugs in treating multidrug resistant disease” (priority 1989, dated 2005).
Entries after “also recorded” stand apart in the source; their conditions may differ. Read-outs that look alike come from different tables or passages of the source.

Tests used:
DX20 tumor = assay: tumor measurements in nude mice bearing the DX20 tumor; format: in vivo
Procedure: (See FIG. 6). Tumor size was calculated using the formula (4 Pi/3) X*Y*2Z.
The study was done with 3-4 week old male balb-C nude mice. The animals were injected with DX20 1×10^7 cells.

[1] = d-Tetrandrine-(S) detected at the tumor; format: in vivo, mice; settings: 3 intraperitoneal injections over 120 hours, 150 mg/kg total
breast cancer = assay: treatment of a person with breast cancer; format: in vivo, human; settings: d-tetrandrine 180 mg per day orally from day 95, with trichemo (5-fluorouracil, cyclophosphamide, doxorubicin)
Procedure: A person with breast cancer was given d-tetrandrine orally, three times a day for a total of 180 mg per day, over a two week period. Five days after the beginning of that treatment, they were given a trichemo soup of 5-fluorouracil, cyclophosphamide and doxorubicin. Eight days later, near the end of the d-tetrandrine dosage, they were given 5-fluorouracil. This regime was followed two different times approximately two weeks apart during the course of retreatment.
A person with very serious breast cancer has also been successfully treated in accordance with the method of the present invention. The tables below describe their treatment regime, which involved a trichemo soup of 5-fluorouracil, cyclophosphamide and doxorubicin, administered intermittently with 5-fluorouracil alone. No d-tetrandrine was administered until day 95.
FIG. 11 is a graphical log of […] tumor area in cubic centimeters charted against days elapsed. The tumor initially responded to the trichemo treatment alone, reducing in size until day 50.
The patient was diagnosed via biopsy on Mar. 19, 1991 as having an infiltrated carcinoma (poorly differentiated) on the right breast. […] They were treated with a combination of 5-fluorouracil, cyclophosphamide and doxorubicin according to the schedule shown below. […] Notice the increase in tumor size between days 50 and 100 indicating the formation of drug resistance.

[2] = test system: CQ-sensitive (FCMSU1/Sudan) strain of P. falciparum; assay: 3H-adenosine incorporation, chloroquine-sensitive P. falciparum; format: cell-based
Procedure: Chloroquine and qinghaosu are commonly used antimalarial drugs.
The dose (IC50) of each drug or each drug combination required to effect a 50% inhibition in the malarial activity of each strain was determined by establishing a dose response curve for each.
FCMSU1/Sudan strain and cloned Indochina (W-2) strain of P. falciparum were used. […] The two strains of the parasite were cultured according to the candle jar method of Trager and Jensen, Science, Vol. 193, pages 673-675 (1976). In a given experiment, four-day-old Petri dish cultures (approximately 10% parasitemia) were diluted with medium containing an amount of noninfected type A human erythrocytes to obtain a culture with a final hematocrit of 1.5% and parasitemia of 0.5-1.0%. The resulting culture was ready for addition to microtitration plates with ninety-six flat-bottom wells.
The testing procedure used was similar to that described by Desjardins et al. in “Antimicrobial Agents and Chemotherapy,” Vol. 16, pages 710-718 (1979). […] 25 microliters radioactive (0.5 microCi) [2,8-^3H] adenosine. The microtitration plates were incubated in a candle jar for an additional 18 hours, at 37° C.
As the malaria parasite grows ^3H-adenosine is metabolized and incorporates into polymeric RNA and DNA. The labeled polymers are trapped on glass fiber filters and unincorporated material is washed away. In the absence of drug there is 100% incorporation of the labeled material. When drugs interfere (directly or indirectly), an inhibitory dose of 50% (IC50) can be calculated. The experiments were repeated three times except where noted. Statistical analysis was done using Student's T-test for significance. Van Kyke et al. “Exp. Parasitol,” Vol. 64, pages 418-423 (1987).
The test procedure was basically the same as outlined above.

[3] = Day 7 Prior to Treatment (baseline)
[4] = Day 24 After Treatment, d-tetrandrine days 6, 8, 10, doxorubicin 5.5 mg/kg day 12

Structure (SMILES): COc1ccc2cc1Oc1ccc(cc1)C[C@H]1c3cc(c(OC)cc3CCN1C)Oc1c(OC)c(OC)cc3c1[C@H](C2)N(C)CC3 [TT, tetrandrine]
- Tumor Measurements Depth (DX20 tumor; [3]): 1.13
- Tumor Measurements Length (DX20 tumor; [3]): 4.13
- Tumor Measurements Width (DX20 tumor; [3]): 3.75
- Tumor Measurements Depth (DX20 tumor; [4]): 24.66
- Tumor Measurements Width (DX20 tumor; [4]): 26.16
- d-Tetrandrine-(S) detected at the tumor [1]: 54 micrograms/gram tissue
- tumor outcome in patient (breast cancer): substantially eliminated; also recorded: continued to diminish to nonexistence by day 175
- IC50 ([2]; S STRAIN, TT/CQ 10:1, mean ± S.D, read-out: IC50 DRUG COMBINATION TT(2.0 uM) CQ(0.2 uM)): 0.114 ± 0.023 µM
- IC50 ([2]; S STRAIN, TT/QHS 10:1, mean ± S.D, read-out: IC50 DRUG COMBINATION TT(2.0 uM) QHS(0.2 uM)): 0.114 ± 0.0063 µM
- IC50 ([2]; Table III, S STRAIN, mean ± S.D, read-out: IC50 SINGLE DRUG): 0.498 ± 0.0937 µM
- IC50 ([2]; Table IV, S STRAIN, mean ± S.D, read-out: IC50 SINGLE DRUG): 0.41 ± 0.069 µM
- IC50 ([2]; Table VII, chloroquine-sensitive strain, drug alone, read-out: IC50 S): 0.29 µM
- IC50 ([2]; read-out: IC50 DRUG COMBINATION TT(1.0 uM) CQ(0.3 uM), S STRAIN, TT/CQ 10:3, mean ± S.D): 0.0549 ± 0.0071 µM
- IC50 ([2]; read-out: IC50 DRUG COMBINATION TT(1.0 uM) QHS(0.3 uM), S STRAIN, TT/QHS 10:3, mean ± S.D): 0.0719 ± 0.0089 µM
- IC50 ([2]; read-out: IC50 DRUG COMBINATION TT(3.0 uM) CQ(0.1 uM), S STRAIN, TT/CQ 30:1, mean ± S.D): 0.223 ± 0.0386 µM
- IC50 ([2]; read-out: IC50 DRUG COMBINATION TT(3.0 uM) QHS(0.1 uM), S STRAIN, TT/QHS 30:1, mean ± S.D): 0.22 ± 0.0355 µM
